According to ChEMBL document CHEMBL5303573, “Mapping human microbiome drug metabolism by gut bacteria and their genes” (Nature, 2019):

Experiments:
[1] = The drug is tested on Bacteroides pectinophilus strain: ATCC43243 for biotransformation. The drug concentrations were measured before and after a 12-h incubation by liquid-chromatography-coupled mass spectrometry (LC–MS); conditions: 2 µM
[2] = The drug is tested on Clostridium scindens strain: ATCC35704 for biotransformation. The drug concentrations were measured before and after a 12-h incubation by liquid-chromatography-coupled mass spectrometry (LC–MS); conditions: 2 µM
[3] = The drug is tested on Bifidobacterium ruminantium strain: fecal isolate for biotransformation. The drug concentrations were measured before and after a 12-h incubation by liquid-chromatography-coupled mass spectrometry (LC–MS); conditions: 2 µM
[4] = limosilactobacillus reuteri cf48-3a, 12 h, 2 µM
Description: The drug is tested on Lactobacillus reuteri CF48-3A strain: BEI HM-102 for biotransformation. The drug concentrations were measured before and after a 12-h incubation by liquid-chromatography-coupled mass spectrometry (LC–MS)

[5] = The drug is tested on Bifidobacterium breve strain: DSM20213 for biotransformation. The drug concentrations were measured before and after a 12-h incubation by liquid-chromatography-coupled mass spectrometry (LC–MS); conditions: 2 µM
[6] = The drug is tested on Escherichia coli strain: BW25113 for biotransformation. The drug concentrations were measured before and after a 12-h incubation by liquid-chromatography-coupled mass spectrometry (LC–MS); conditions: 2 µM
[7] = The drug is tested on Bifidobacterium longum subsp. Infantis strain: CCUG52486 for biotransformation. The drug concentrations were measured before and after a 12-h incubation by liquid-chromatography-coupled mass spectrometry (LC–MS); conditions: 2 µM
[8] = bifidobacterium adolescentis, 12 h, 2 µM
Description: The drug is tested on Bifidobacterium adolescentis strain: ATCC 15703 for biotransformation. The drug concentrations were measured before and after a 12-h incubation by liquid-chromatography-coupled mass spectrometry (LC–MS)

[9] = The drug is tested on Collinsella intestinalis strain: DSM13280 for biotransformation. The drug concentrations were measured before and after a 12-h incubation by liquid-chromatography-coupled mass spectrometry (LC–MS); conditions: 2 µM
[10] = bacteroides intestinalis, 12 h, 2 µM
Description: The drug is tested on Bacteroides intestinalis strain: DSM17393 for biotransformation. The drug concentrations were measured before and after a 12-h incubation by liquid-chromatography-coupled mass spectrometry (LC–MS)

[11] = The drug is tested on Eubacterium hallii strain: DSM3353 for biotransformation. The drug concentrations were measured before and after a 12-h incubation by liquid-chromatography-coupled mass spectrometry (LC–MS); conditions: anaerobutyricum hallii, 2 µM
[12] = The drug is tested on Odoribacter splanchnicus strain: fecal isolate for biotransformation. The drug concentrations were measured before and after a 12-h incubation by liquid-chromatography-coupled mass spectrometry (LC–MS); conditions: 2 µM
[13] = bacteroides stercoris, 12 h, 2 µM
Description: The drug is tested on Bacteroides stercoris strain: ATCC43183 for biotransformation. The drug concentrations were measured before and after a 12-h incubation by liquid-chromatography-coupled mass spectrometry (LC–MS)

[14] = The drug is tested on Bacteroides caccae strain: ATCC43185 for biotransformation. The drug concentrations were measured before and after a 12-h incubation by liquid-chromatography-coupled mass spectrometry (LC–MS); conditions: 2 µM
[15] = The drug is tested on Clostridium asparagiforme strain: DSM15981 for biotransformation. The drug concentrations were measured before and after a 12-h incubation by liquid-chromatography-coupled mass spectrometry (LC–MS); assay type: ADME; parameters: dose 2 uM, timepoint 0 vs 12 hours; conditions: enterocloster asparagiformis, 2 µM
[16] = bacteroides thetaiotaomicron, 12 h, 2 µM
Description: The drug is tested on Bacteroides thetaiotaomicron strain: VPI-5482 for biotransformation. The drug concentrations were measured before and after a 12-h incubation by liquid-chromatography-coupled mass spectrometry (LC–MS)

[17] = parabacteroides distasonis, 12 h, 2 µM
Description: The drug is tested on Parabacteroides distasonis strain: ATCC8503 for biotransformation. The drug concentrations were measured before and after a 12-h incubation by liquid-chromatography-coupled mass spectrometry (LC–MS)

[18] = The drug is tested on Enterobacter cancerogenus strain: ATCC35316 for biotransformation. The drug concentrations were measured before and after a 12-h incubation by liquid-chromatography-coupled mass spectrometry (LC–MS); conditions: 2 µM
[19] = bacteroides thetaiotaomicron, 12 h, 2 µM; remark: listed apart in the source
Description: The drug is tested on Bacteroides thetaiotaomicron strain: 3731 for biotransformation. The drug concentrations were measured before and after a 12-h incubation by liquid-chromatography-coupled mass spectrometry (LC–MS)

[20] = The drug is tested on Bacteroides fragilis strain: HMW610 for biotransformation. The drug concentrations were measured before and after a 12-h incubation by liquid-chromatography-coupled mass spectrometry (LC–MS); conditions: 2 µM

SMILES	Bacterial Biotransformation [1]	Bacterial Biotransformation [2]	Bacterial Biotransformation [3]	Bacterial Biotransformation [4]	Bacterial Biotransformation [5]	Bacterial Biotransformation [6]	Bacterial Biotransformation [7]	Bacterial Biotransformation [8]	Bacterial Biotransformation [9]	Bacterial Biotransformation [10]	Bacterial Biotransformation [11]	Bacterial Biotransformation [12]	Bacterial Biotransformation [13]	Bacterial Biotransformation [14]	Bacterial Biotransformation [15]	Bacterial Biotransformation [16]	Bacterial Biotransformation [17]	Bacterial Biotransformation [18]	Bacterial Biotransformation [19]	Bacterial Biotransformation [20]
CCN1CCCC1CNC(=O)c1cc(S(=O)(=O)CC)c(N)cc1OC (configuration not stated) [AMISULPRIDE]	Compound NOT metabolized	Compound NOT metabolized	Compound NOT metabolized	Compound NOT metabolized	Compound NOT metabolized	Compound NOT metabolized	Compound NOT metabolized	Compound NOT metabolized	Compound NOT metabolized	Compound NOT metabolized	Compound NOT metabolized	Compound NOT metabolized	Compound NOT metabolized	Compound NOT metabolized	Compound NOT metabolized	Compound NOT metabolized	Compound NOT metabolized	Compound NOT metabolized	Compound NOT metabolized	–
CC(C)NCC(O)COc1ccc(CC(N)=O)cc1 (configuration not stated) [ATENOLOL]	Compound NOT metabolized	Compound NOT metabolized	Compound NOT metabolized	Compound NOT metabolized	Compound NOT metabolized	Compound NOT metabolized	Compound NOT metabolized	Compound NOT metabolized	Compound NOT metabolized	Compound NOT metabolized	Compound NOT metabolized	–	–	–	Compound NOT metabolized	–	Compound NOT metabolized	Compound NOT metabolized	–	–
CN(C)C(=O)Oc1cc(OC(=O)N(C)C)cc(C(O)CNC(C)(C)C)c1 (configuration not stated) [BAMBUTEROL]	Compound NOT metabolized	Compound NOT metabolized	–	Compound NOT metabolized	Compound NOT metabolized	Compound NOT metabolized	Compound NOT metabolized	Compound NOT metabolized	Compound NOT metabolized	Compound NOT metabolized	Compound NOT metabolized	Compound NOT metabolized	Compound NOT metabolized	Compound NOT metabolized	Compound NOT metabolized	Compound NOT metabolized	Compound NOT metabolized	Compound NOT metabolized	Compound NOT metabolized	Compound NOT metabolized
COC(=O)[C@H](c1ccccc1Cl)N1CCc2sccc2C1.O=S(=O)(O)O [CLOPIDOGREL BISULFATE]	Compound NOT metabolized	Compound NOT metabolized	–	Compound NOT metabolized	Compound NOT metabolized	Compound NOT metabolized	Compound NOT metabolized	Compound NOT metabolized	Compound NOT metabolized	Compound NOT metabolized	Compound NOT metabolized	Compound metabolized	Compound metabolized	Compound NOT metabolized	Compound NOT metabolized	Compound metabolized	Compound metabolized	Compound NOT metabolized	Compound NOT metabolized	Compound metabolized

The next lines start with results.

Bacterial Biotransformation [1]	Bacterial Biotransformation [2]	Bacterial Biotransformation [3]	Bacterial Biotransformation [4]	Bacterial Biotransformation [5]	Bacterial Biotransformation [6]	Bacterial Biotransformation [7]	Bacterial Biotransformation [8]	Bacterial Biotransformation [9]	Bacterial Biotransformation [10]	Bacterial Biotransformation [11]	Bacterial Biotransformation [12]	Bacterial Biotransformation [13]	Bacterial Biotransformation [14]	Bacterial Biotransformation [15]	Bacterial Biotransformation [16]	Bacterial Biotransformation [17]	Bacterial Biotransformation [18]	Bacterial Biotransformation [19]	SMILES	Bacterial Biotransformation [20]
Compound NOT metabolized	Compound NOT metabolized	Compound NOT metabolized	Compound NOT metabolized	Compound NOT metabolized	Compound NOT metabolized	Compound NOT metabolized	Compound NOT metabolized	Compound NOT metabolized	Compound NOT metabolized	Compound NOT metabolized	Compound NOT metabolized	Compound NOT metabolized	Compound NOT metabolized	Compound NOT metabolized	Compound NOT metabolized	–	Compound NOT metabolized	Compound NOT metabolized	OC(CCN1CCCCC1)(c1ccccc1)C1CC2C=CC1C2 (configuration not stated) [BIPERIDEN]	–
Compound metabolized	Compound metabolized	Compound metabolized	Compound metabolized	Compound metabolized	Compound metabolized	Compound metabolized	Compound metabolized	Compound metabolized	Compound metabolized	Compound metabolized	Compound metabolized	Compound metabolized	Compound metabolized	Compound metabolized	Compound metabolized	Compound metabolized	Compound metabolized	Compound metabolized	CCN(CC)CCOCCOC(=O)C1(c2ccccc2)CCCC1.O=C(O)CC(O)(CC(=O)O)C(=O)O [CARBETAPENTANE CITRATE]	–
Compound NOT metabolized	Compound NOT metabolized	–	Compound NOT metabolized	Compound metabolized	Compound NOT metabolized	Compound NOT metabolized	Compound NOT metabolized	Compound NOT metabolized	Compound NOT metabolized	Compound NOT metabolized	Compound NOT metabolized	Compound metabolized	Compound NOT metabolized	Compound NOT metabolized	Compound NOT metabolized	Compound NOT metabolized	Compound NOT metabolized	Compound NOT metabolized	CC#C[C@]1(O)CC[C@H]2[C@@H]3CCC4=CC(=O)CCC4=C3[C@@H](c3ccc(N(C)C)cc3)C[C@@]21C [MIFEPRISTONE]	Compound metabolized
